Measurements as given in patent publication US10232021B2, “Calcitonin mimetics for treating diseases and disorders” (KEYBIOSCIENCE AG, priority 2013, dated 2019).
Bridges are numbered along the chain shown (N, C = ends).

Assays:
[1] = Eight-week treatment of obese rats: food intake and bodyweight; assay type: in vivo; settings: 2.5 μg/kg/day subcutaneous
Procedure: To further investigate the potency of KBP-089 against KBP-042 obese rats were dosed with 2.5 μg/kg/day given as subcutaneous injection of either KBP-089 or KBP-042 and then two control groups, a vehicle and a calorie restriction group, in which the food intake was matched to the food intake of the KBP-089 group to shed light on whether effects independent of food intake could be observed.
In FIGS. 11A-11B; the effect of the peptides on food intake (FIG. 11A) and bodyweight (FIG. […]) during the eight week treatment period is shown in the upper and lower panels respectively. […] Additionally, when comparing KBP-089 to the calorie restricted control group (pair-fed), which has received exactly the same amount of food as the KBP-089 group over the study period, it is clear that the weight reduction is not only mediated by a restriction of food intake, but also by other effects.

[2] = Acute single-dose test on food intake, bodyweight and post-prandial glucose in high fat diet obese rats; assay type: in vivo, Male Sprague-Dawley rats
Procedure: To ensure the in vivo activity of this class of peptides, an acute test of the ability of KBP-056 to reduce food intake, bodyweight and post-prandial glucose compared to UGP302/KBP-042 was conducted. Male Sprague-Dawley rats were fed high fat diet for 8 weeks to induce obesity, and were then exposed to a single subcutaneous dose of 5 μg/kg KBP-056, UGP302/KBP-042 or vehicle (saline) (5 rats per group), and the effect on food intake, bodyweight and blood glucose was assessed. Blood was collected from the tail vein after 18 hours of dosing. Whole blood glucose levels were determined with an ACCU-CHEK® Avia blood glucose meter (Roche Diagnostics, Rotkreuz, Switzerland).

[3] = Bone resorption (CTX-I) and cartilage degradation (CTX-II) in rats on HFD; assay type: in vivo; settings: male rats on HFD
Source text: This confirmed that the KBPs maintain their beneficial effects on bone and cartilage despite the amino-acid changes.

[4] = Three-week treatment of ZDF rats: fasting plasma glucose and HbA1c; assay type: in vivo, male ZDF (fa/fa) rats; settings: 5 μg/kg/day subcutaneously once daily, 3 weeks
Procedure: To assess the effects of the peptides in relation to regulation of blood glucose levels, male ZDF rats, which are the gold standard model of Type 2 Diabetes were treated for 3 weeks with the 3 most promising KBPs (023, 056 and 088) and an active comparator (UGP302/KBP-042). Male ZDF (fa/fa) rats were obtained at the age of 7 weeks from Charles River Laboratories (Kisslegg, Deutschland). All animals were housed at the animal facility at Nordic Bioscience with a constant temperature (21-23° C.) and relative humidity (55-65%) on a 12 h light/dark cycle with free access to Purina 5008 rat chow (Brogaarden, Lynge, Denmark) and tap water. At the age of 8 weeks, the animals were randomized into five groups of 8 rats each based upon fasting blood glucose and body weight (Vehicle (saline), UGP302/KBP-042 5 μg/kg/day, KBP-023 5 μg/kg/day, KBP-056 5 μg/kg/day and KBP-088 5 μg/kg/day) and dosing was done subcutaneously once daily. The animals were treated for a total of 3 weeks to assess the effect of the peptides on fasting blood glucose. Blood glucose was monitored using the Accu-Check® Avia monitoring system (Roche Diagnostics, Rotkreuz, Switzerland) and HbA1c levels by the DCA Vantage™ Analyzer (Siemens Healthcare Diagnostics, Deerfield, Ill.).

[5] = target: T1, Calcitonin Receptor (CTR) (Homo sapiens, UniProt P30988); experiment: PathHunter β-arrestin assay on the calcitonin receptor, incl. prolonged activation; assay type: cell-based; settings: U20S-CALCR cells; 4, 8, 24, 48, 72 h; 0.001-100 nM
T1 construct: host or cells: U2OS
T1 sequence (P30988 25-474): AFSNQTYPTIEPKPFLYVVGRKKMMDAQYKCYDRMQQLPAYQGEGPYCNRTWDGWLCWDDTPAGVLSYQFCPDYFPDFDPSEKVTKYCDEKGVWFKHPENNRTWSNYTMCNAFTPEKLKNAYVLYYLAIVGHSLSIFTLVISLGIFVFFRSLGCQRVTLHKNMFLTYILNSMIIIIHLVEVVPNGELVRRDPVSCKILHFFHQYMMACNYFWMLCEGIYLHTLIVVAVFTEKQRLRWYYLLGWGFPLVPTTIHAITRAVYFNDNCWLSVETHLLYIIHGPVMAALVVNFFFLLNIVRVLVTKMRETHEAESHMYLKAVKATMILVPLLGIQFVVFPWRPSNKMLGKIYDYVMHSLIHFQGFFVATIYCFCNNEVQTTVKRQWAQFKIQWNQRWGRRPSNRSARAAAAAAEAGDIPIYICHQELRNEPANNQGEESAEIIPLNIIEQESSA
Procedure: The following cell lines expressing the calcitonin, amylin and CGRP receptors were purchased and cultured according to the manufacturer's instructions. • 1. Calcitonin Receptor (CTR): U20S-CALCR from DiscoveRx (Cat. No.: 93-0566C3). • 2. Amylin Receptor (AMY-R): CHO-K1 CALCR+RAMP3 from DiscoveRx (Cat. No.: 93-0268C2). • 3. CGRP Receptor (CGRP-R): CHO-K1 CALCRL+RAMP1 from DiscoveRx (Cat. No.: 93-0269C2).
In independent bioassays, CTR, AMY-R and CGRP-R cells were treated with for the indicated timepoints with increasing doses of sCT, UGP-302/KBP-042 or the KBPs identified in Table 3 (0, 0.001, 0.01, 0.1, 1, 10, and 100 nM). […]
In this system, the GPCR is fused in frame with the small enzyme fragment ProLink™ and co-expressed in cells stably expressing a fusion protein of β-Arrestin and the larger, N-terminal deletion mutant of β-gal (called enzyme acceptor or EA). […] This interaction leads to an increase in enzyme activity that can be measured using chemiluminescent PathHunter® Detection Reagents.
The assay was performed in white 384 well plates (Greiner Bio-One, 784080). […] To quantify the GPCR-mediated β-arrestin recruitment the Pathhunter™ Detection Kit (93-0001, DiscoverX) was used and assay performed accordingly to the manufacturer's instructions. […]

[6] = Single-dose food intake in obese High-Fat-Diet rats; assay type: in vivo; settings: single subcutaneous dose 1.25, 2.5, 5 μg/kg; obese rats fasted overnight
Procedure: Rats were fed a High-Fat-Diet for 14 weeks prior to the experiment to induce obesity.
Further similar studies were undertaken over different time periods and with different peptides and the results are seen in FIG. 10 and FIGS. 11A-11B. The ability of KBP089 to suppress food intake over 72 hours was compared to that of KBP042 as control and the results are seen in FIG. 10.

| Substance | bodyweight during eight week treatment [1] | food intake during eight week treatment [1] | RANK (48 h) ([2]; rank symbol + or 0 at 48 h, legend not given) | bone resorption (CTX-I) [3] | cartilage degradation (CTX-II) [3] | maximum inhibition of CTX-I and CTX-II [3] | food intake ([2]; single subcutaneous dose 5 μg/kg, 18-hour period, obese HFD rats) | post-prandial glucose ([2]; single subcutaneous dose 5 μg/kg, blood after 18 hours, obese HFD rats) | bodyweight ([2]; single subcutaneous dose 5 μg/kg, obese HFD rats) | HbA1c [4] | fasting plasma glucose (FPG) [4] | activation of the CTR (β-arrestin) [5] | food intake, 0-4 hours [6] | food intake, 4-24 hours [6] | food intake, 24-48 hours [6] |
| --- | --- | --- | --- | --- | --- | --- | --- | --- | --- | --- | --- | --- | --- | --- | --- |
| KBP-042: Peptide UGP302 of WO2013/067357, SEQ ID NO: 4; AcCSNLSTCVLGKLSQELHKLQTYPRTDVGANAP-NH2 (Ac-CSNLSTCVLGKLSQELHKLQTYPRTDVGANAP-NH2; ends and bridges not checked) [reference compound] | substantial weight loss | reduce food intake dramatically in the beginning | 0 | – | – | – | – | – | – | – | – | – | – | – | – |
| KBP-056: SEQ ID NO: 11; AcCASLSTCVLGKLSQDLHKLQTFPRTDVGANAP-NH2 as printed in Table 3, Cys1-Cys7 disulphide bridge | – | – | – | dose and time-dependently reduced | dose and time-dependently reduced | reached three hours after dosing and at doses exceeding 1 μg/kg/day | strongly reduced food intake | prominent reduction in post-prandial glucose levels | significant weight loss | highly active | highly active | superior ability to activate and maintain activation of the CTR | – | – | – |
| KBP-089: SEQ ID NO: 44; AcCSNLSTCMLGRLSQDLHRLQTYPKTDVGANAP-NH2, Cys1-Cys7 disulphide bridge (Ac-CSNLSTCMLGRLSQDLHRLQTYPKTDVGANAP-NH2; disulfide 1-7; SMILES CSCC[C@H](NC(=O)[C@@H]1CSSC[C@H](NC(C)=O)C(=O)N[C@@H](CO)C(=O)N[C@@H](CC(N)=O)C(=O)N[C@@H](CC(C)C)C(=O)N[C@@H](CO)C(=O)N[C@@H]([C@@H](C)O)C(=O)N1)C(=O)N[C@@H](CC(C)C)C(=O)NCC(=O)N[C@@H](CCCNC(=N)N)C(=O)N[C@@H](CC(C)C)C(=O)N[C@@H](CO)C(=O)N[C@@H](CCC(N)=O)C(=O)N[C@@H](CC(=O)O)C(=O)N[C@@H](CC(C)C)C(=O)N[C@@H](Cc1c[nH]cn1)C(=O)N[C@@H](CCCNC(=N)N)C(=O)N[C@@H](CC(C)C)C(=O)N[C@@H](CCC(N)=O)C(=O)N[C@H](C(=O)N[C@@H](Cc1ccc(O)cc1)C(=O)N1CCC[C@H]1C(=O)N[C@@H](CCCCN)C(=O)N[C@H](C(=O)N[C@@H](CC(=O)O)C(=O)N[C@H](C(=O)NCC(=O)N[C@@H](C)C(=O)N[C@@H](CC(N)=O)C(=O)N[C@@H](C)C(=O)N1CCC[C@H]1C(N)=O)C(C)C)[C@@H](C)O)[C@@H](C)O) | greater than that introduced by KBP-042 | reduce food intake dramatically in the beginning | – | – | – | – | – | – | – | – | – | – | led to a reduction in food intake | the effect was maintained to 24 hours | led to a reduction in food intake |
